Experiments:
[1] = tested on: T cells isolated from mouse spleen; experiment: T cell proliferation inhibition, CFSE flow cytometry, CD3/CD28 activation; format: cell-based; details: CD3/CD28 activated, 3 days
In short: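 Splenic T cells from 7-week-old C57BL/6 mice were MACS-isolated, CFSE-labelled, seeded at 2×10^5 cells/well and activated with anti-CD3/anti-CD28 (0.5 μg/mL each). Compound at 10 nM–50 μM (six levels, triplicate) was present for 3 days at 37 °C before flow cytometric readout of proliferation inhibition rate.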

[2] = tested on: HCT-116 colon cancer cell lines; experiment: Invasion Assay using Matrigel, HCT-116; format: cell-based, human; details: HCT-116, Matrigel invasion, 24 hours treatment
Experimental: To evaluate the metastasis inhibitory efficacy of the compounds of the present invention on HCT-116 colon cancer cell lines, an Invasion Assay using Matrigel was performed to assess the cells' invasion ability.
First, Matrigel was thawed on ice in RPMI-1640 medium without FBS, then diluted with DMEM at a ratio of 1:20.
The diluted Matrigel mixture was applied to the upper chamber at 100 μl per well, and 750 μl of RPMI-1640 without FBS was added to the lower chamber.
The plates were then incubated at 37° C. for 1 hour to allow the Matrigel to solidify.
After coating, the Matrigel mixture in the upper chamber was removed using a pipette, and the chamber was washed with RPMI without FBS.
Human-derived colorectal cancer cell line HCT-116, obtained from the Korean Cell Bank, was cultured in RPMI-1640 medium containing 10% FBS.
Following stabilization, the cells were harvested using Trypsin-EDTA treatment, centrifuged at 1,200 rpm for 3 minutes, the supernatant was removed, and the cells were resuspended in the same medium, the medium in the lower chamber was replaced with 750 μl of RPMI-1640 supplemented with 10% FBS, and the cells were seeded into the upper chamber at a density of 5×10^4 cells/well.
The cells were cultured for 24 hours after attachment, and then the compounds according to the present invention (G078, G085, G086, G088, G089, PBK-2024-010, PBK-2025-010, PBK-2025-013, PBK-2025-016) and the control substance DMSO were diluted and added to the upper chamber after removing the medium.
Additionally, the medium in the lower chamber was replaced with fresh RPMI-1640 containing FBS, and the culture was continued.
After an additional 24 hours, the medium was removed, and 1 ml of methanol was added for 10 minutes to fix the cells.
Subsequently, 1 ml of Hematoxylin was added and reacted for 5 minutes, followed by 1 ml of Eosin, which was reacted for 30 seconds. The sample was then washed with distilled water (DW).
After staining was complete, any remaining cells in the upper chamber were removed. Finally, the infiltrated cells were observed under a microscope, photographed, and the degree of infiltration was analyzed.

[3] = tested on: bleomycin-treated Balb/c mice; experiment: Bleomycin-induced pulmonary fibrosis animal model; format: in vivo, mouse; details: bleomycin mice lung, vs BLM-treated group
Source text: To evaluate the therapeutic efficacy of the compound according to the present invention against pulmonary fibrosis, an animal model of pulmonary fibrosis induced by bleomycin intratracheal administration was established.
For this purpose, 8-week-old male Balb/c mice were subjected to general anesthesia using an inhalation anesthetic (2-3% isoflurane in oxygen), followed by disinfection of the neck region, skin incision, and exposure of the trachea.
Bleomycin (Sigma-Aldrich, USA) was directly administered into the trachea at a concentration of 5 mg/kg in a solution of 100 μL.
Two days prior to Bleomycin administration, the compound of the present invention or the comparative drug was administered intraperitoneally at the specified concentration and dose, and the administration was continued once daily for a total of 14 days.
The experimental groups included Normal, Bleomycin alone (BLM), and BLM plus the compound of the present invention (BLM+GO88, 0.2 mg/kg).
Ten days later, the mice were euthanized humanely using carbon dioxide gas, the trachea was incised, and PBS was injected into the trachea to remove blood from the lungs.
The lung tissue washed with PBS was excised, fixed in 4% paraformaldehyde solution for 24 hours, and then paraffin blocks and tissue sections were prepared. The prepared sections were subjected to pathological analysis using H & E, Masson's trichrome, and Sirius red staining.
Additionally, immunohistochemical (IHC) staining was performed for α-SMA (α-smooth muscle actin), an indicator of lung fibroblast activation.

[4] = tested on: Collagen I in human lung fibroblasts MRC-5; experiment: TGF-β-induced Collagen I expression in MRC-5 cells, Western blot; format: cell-based; details: MRC-5, TGF-β (5 ng/ml), GO88 0.5 μM and 1 μM, 24 hours
Experimental: To confirm that the compound of the present invention directly acts on fibrosis-related mechanisms, in vitro experiments were performed using human lung fibroblasts MRC-5 cell lines (Korea Cell Bank).
First, MRC-5 cells were seeded at 5×10^3 cells per well in a 6-well plate and stabilized for 24 hours.
Subsequently, experimental groups were established, including a control group, a group treated with TGF-β (5 ng/ml) alone, and groups treated with TGF-β and the compound GO88 from the present invention at concentrations of 0.5 μM and 1 μM, respectively.
After treating each group with the drugs for 24 hours, the cell medium was removed, and the cells were washed twice with cold PBS. Then, RIPA lysis buffer containing phosphatase inhibitor and protease inhibitor was added to each group to extract proteins.
The extracted proteins were incubated at 4° C. for 30 minutes, then centrifuged at 13,000 rpm for 15 minutes, and the supernatant was collected. The total protein concentration was measured using the BCA protein quantification method.
Subsequently, the proteins were separated by SDS-PAGE, transferred to a PVDF membrane, and Western blot analysis was performed.
The expression levels of Collagen I, a marker related to pulmonary fibrosis, were confirmed, with GAPDH used as an internal control.

## CC1(C)CN(CCCCCCCCCCCCC(=O)Nc2nc(N)c3[nH]cnc3n2)CCO1 [Compound 11, 12-[4-(2,2-dimethylmorpholin-4-yl)]dodecyl-N-(6-aminopurine-2-yl)carboxamide]
[1]; compound 100 nM
  Proliferation inhibition rate (%): 100.00%
[1]; compound 1 μM
  Proliferation inhibition rate (%): 100.00%
[1]; compound 10 μM
  Proliferation inhibition rate (%): 100.00%
[1]; compound 30 μM
  Proliferation inhibition rate (%): 100.00%
[1]; compound 50 μM
  Proliferation inhibition rate (%): 100.00%
[2]
  number of infiltrated cells: reduction in the number of infiltrated cells

## Nc1ncccc1C(=O)NCCCCCCCCCCCCN1CCNCC1 [Compound 14, 2-Amino-N-(12-(piperazin-1-yl)dodecyl)nicotinamide]
[3]
  collagen deposition (Masson's trichrome and Sirius red staining): significantly reduced
  expression of α-SMA (IHC): significantly suppressed
[4]
  protein expression of Collagen I: inhibited in a concentration-dependent manner

— US20260184700A1, “PDK1 REGULATORY COMPOUND AND COMPOSITION CONTAINING THE SAME” (PROVIBIO CO., LTD., priority 2024, published 2026)
